From ChEMBL document CHEMBL1150976, “The selectivity of protein kinase inhibitors: a further update” (Biochem J, 2007)

What was measured:
Aurora kinase B = Aurora kinase B (Homo sapiens, UniProt Q96GD4); assay: Percentage Aurora B activity remaining in the presence of 0.01uM inhibitor
[1] = biological target: Calcium/calmodulin-dependent protein kinase kinase 1 (Homo sapiens) (UniProt Q8N5S9); assay: Percentage CaMKKalpha activity remaining in the presence of 0.01uM inhibitor
[2] = biological target: T1, Dual specificity tyrosine-phosphorylation-regulated kinase 2 (Homo sapiens) (UniProt Q92630); assay: Percentage DYRK2 activity remaining in the presence of 0.01uM inhibitor
T1 sequence (whole entry): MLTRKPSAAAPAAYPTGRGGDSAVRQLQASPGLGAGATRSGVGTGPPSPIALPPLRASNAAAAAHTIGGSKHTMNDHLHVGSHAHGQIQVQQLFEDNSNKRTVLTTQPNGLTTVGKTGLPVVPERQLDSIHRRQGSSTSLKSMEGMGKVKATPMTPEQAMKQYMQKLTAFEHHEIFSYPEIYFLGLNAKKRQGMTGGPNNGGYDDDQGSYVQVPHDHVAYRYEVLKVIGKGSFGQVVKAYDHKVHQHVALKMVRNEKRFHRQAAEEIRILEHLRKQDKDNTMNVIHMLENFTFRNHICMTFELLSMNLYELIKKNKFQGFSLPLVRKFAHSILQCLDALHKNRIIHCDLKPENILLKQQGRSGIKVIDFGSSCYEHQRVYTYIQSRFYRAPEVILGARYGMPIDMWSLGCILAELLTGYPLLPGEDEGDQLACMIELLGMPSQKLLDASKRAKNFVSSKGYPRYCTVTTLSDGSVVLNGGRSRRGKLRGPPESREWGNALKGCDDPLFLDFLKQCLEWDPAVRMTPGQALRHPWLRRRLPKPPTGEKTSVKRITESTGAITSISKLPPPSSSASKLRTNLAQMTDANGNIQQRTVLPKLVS

[3] = biological target: T2, Eukaryotic elongation factor 2 kinase (Homo sapiens) (UniProt O00418); assay: Percentage EF2K activity remaining in the presence of 0.01uM inhibitor
T2 sequence (whole entry): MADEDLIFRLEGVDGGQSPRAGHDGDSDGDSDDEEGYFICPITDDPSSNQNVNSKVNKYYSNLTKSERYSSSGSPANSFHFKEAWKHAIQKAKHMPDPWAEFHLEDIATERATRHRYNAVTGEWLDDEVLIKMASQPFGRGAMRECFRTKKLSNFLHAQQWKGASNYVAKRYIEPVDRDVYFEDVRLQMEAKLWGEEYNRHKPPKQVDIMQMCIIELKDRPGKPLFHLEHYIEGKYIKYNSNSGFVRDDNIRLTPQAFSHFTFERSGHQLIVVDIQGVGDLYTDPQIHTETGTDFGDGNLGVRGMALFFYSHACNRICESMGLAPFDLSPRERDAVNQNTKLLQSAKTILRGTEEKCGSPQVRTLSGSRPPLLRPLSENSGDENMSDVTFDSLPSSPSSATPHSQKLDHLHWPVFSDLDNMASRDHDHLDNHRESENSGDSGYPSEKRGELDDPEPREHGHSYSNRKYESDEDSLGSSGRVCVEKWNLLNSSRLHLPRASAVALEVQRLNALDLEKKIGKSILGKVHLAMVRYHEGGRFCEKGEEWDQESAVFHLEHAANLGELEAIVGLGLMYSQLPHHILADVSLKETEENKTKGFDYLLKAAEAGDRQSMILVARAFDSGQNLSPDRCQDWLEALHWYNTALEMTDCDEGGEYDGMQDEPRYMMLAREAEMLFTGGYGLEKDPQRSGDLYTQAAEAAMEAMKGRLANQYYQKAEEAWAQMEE

[4] = biological target: Homeodomain-interacting protein kinase 2 (Homo sapiens) (UniProt Q9H2X6); assay: Percentage HIPK2 activity remaining in the presence of 0.01uM inhibitor
[5] = biological target: MAP kinase-activated protein kinase 2 (Homo sapiens) (UniProt P49137); assay: Percentage MAPKAPK2 activity remaining in the presence of 0.01uM inhibitor
[6] = biological target: Proto-oncogene tyrosine-protein kinase LCK (Mus musculus) (UniProt P06240); assay: Percentage Lck activity remaining in the presence of 0.01uM inhibitor
[7] = biological target: T3, Serine/threonine-protein kinase Sgk1 (Homo sapiens) (UniProt O00141); assay: Percentage SGK1 activity remaining in the presence of 0.01uM inhibitor
T3 sequence (whole entry): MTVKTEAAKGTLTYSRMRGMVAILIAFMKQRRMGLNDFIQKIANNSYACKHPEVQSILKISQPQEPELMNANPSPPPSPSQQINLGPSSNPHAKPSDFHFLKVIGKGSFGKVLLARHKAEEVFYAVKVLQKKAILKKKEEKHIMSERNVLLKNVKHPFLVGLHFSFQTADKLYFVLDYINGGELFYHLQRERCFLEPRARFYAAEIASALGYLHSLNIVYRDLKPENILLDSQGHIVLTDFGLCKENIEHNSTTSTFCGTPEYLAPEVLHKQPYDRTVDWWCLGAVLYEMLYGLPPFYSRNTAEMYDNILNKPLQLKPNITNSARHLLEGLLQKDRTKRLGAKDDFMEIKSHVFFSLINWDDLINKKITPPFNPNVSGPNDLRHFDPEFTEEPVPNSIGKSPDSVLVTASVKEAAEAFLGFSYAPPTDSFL

[8] = biological target: cAMP-dependent protein kinase catalytic subunit alpha (Homo sapiens, UniProt P17612); assay: Percentage PKA activity remaining in the presence of 0.01uM inhibitor
[9] = biological target: RAC-alpha serine/threonine-protein kinase (Homo sapiens) (UniProt P31749); assay: Percentage PKBalpha activity remaining in the presence of 0.01uM inhibitor
[10] = biological target: Homeodomain-interacting protein kinase 3 (Homo sapiens) (UniProt Q9H422); assay: Percentage HIPK3 activity remaining in the presence of 0.01uM inhibitor
[11] = biological target: Mitogen-activated protein kinase 9 (Homo sapiens, UniProt P45984); assay: Percentage JNK2 activity remaining in the presence of 0.01uM inhibitor
[12] = biological target: Tyrosine-protein kinase CSK (Homo sapiens, UniProt P41240); assay: Percentage CSK activity remaining in the presence of 0.01uM inhibitor
[13] = biological target: Glycogen synthase kinase-3 beta (Homo sapiens, UniProt P49841); assay: Percentage GSK3-beta activity remaining in the presence of 0.01uM inhibitor
[14] = biological target: MAP kinase-activated protein kinase 3 (Homo sapiens) (UniProt Q16644); assay: Percentage MAPKAPK3 activity remaining in the presence of 0.01uM inhibitor
[15] = biological target: Serine/threonine-protein kinase pim-3 (Homo sapiens, UniProt Q86V86); assay: Percentage PIM3 activity remaining in the presence of 25uM inhibitor; conditions: filed as antagonist
[16] = biological target: Calcium/calmodulin-dependent protein kinase kinase 2 (Homo sapiens) (UniProt Q96RR4); assay: Percentage CaMKKbeta activity remaining in the presence of 25uM inhibitor
[17] = biological target: Serine/threonine-protein kinase PAK 5 (Homo sapiens) (UniProt Q9P286); assay: Percentage PAK5 activity remaining in the presence of 25uM inhibitor
[18] = biological target: Serine/threonine-protein kinase N2 (Homo sapiens) (UniProt Q16513); assay: Percentage PRK2 activity remaining in the presence of 25uM inhibitor

Proto-oncogene tyrosine-protein kinase LCK (Mus musculus), sequence (P06240 2-509 limits assumed): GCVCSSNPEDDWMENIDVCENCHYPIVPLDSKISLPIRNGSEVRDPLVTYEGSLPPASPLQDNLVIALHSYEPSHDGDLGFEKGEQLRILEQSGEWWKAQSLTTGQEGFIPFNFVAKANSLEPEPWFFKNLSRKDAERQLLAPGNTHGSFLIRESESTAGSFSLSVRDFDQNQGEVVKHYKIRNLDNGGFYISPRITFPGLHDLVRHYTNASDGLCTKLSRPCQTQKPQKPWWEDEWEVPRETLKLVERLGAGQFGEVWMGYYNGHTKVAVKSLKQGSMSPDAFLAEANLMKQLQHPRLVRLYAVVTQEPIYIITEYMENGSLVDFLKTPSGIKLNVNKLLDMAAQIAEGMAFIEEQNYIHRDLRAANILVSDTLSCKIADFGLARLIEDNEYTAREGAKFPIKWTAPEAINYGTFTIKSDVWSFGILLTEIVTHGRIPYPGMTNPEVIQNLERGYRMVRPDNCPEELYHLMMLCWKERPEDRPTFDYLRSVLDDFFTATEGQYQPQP
Aurora kinase B, sequence (Q96GD4 whole entry): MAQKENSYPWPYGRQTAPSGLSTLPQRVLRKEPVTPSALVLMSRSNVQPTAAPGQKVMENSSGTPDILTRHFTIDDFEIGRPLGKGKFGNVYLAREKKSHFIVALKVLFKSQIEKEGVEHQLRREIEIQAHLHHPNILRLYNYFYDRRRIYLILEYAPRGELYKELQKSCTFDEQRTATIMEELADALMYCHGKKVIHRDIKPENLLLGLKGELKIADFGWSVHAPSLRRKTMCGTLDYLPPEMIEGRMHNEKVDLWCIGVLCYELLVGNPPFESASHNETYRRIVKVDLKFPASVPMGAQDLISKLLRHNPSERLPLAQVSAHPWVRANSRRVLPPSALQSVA
Homeodomain-interacting protein kinase 2 (Homo sapiens), sequence (Q9H2X6 whole entry, looked up): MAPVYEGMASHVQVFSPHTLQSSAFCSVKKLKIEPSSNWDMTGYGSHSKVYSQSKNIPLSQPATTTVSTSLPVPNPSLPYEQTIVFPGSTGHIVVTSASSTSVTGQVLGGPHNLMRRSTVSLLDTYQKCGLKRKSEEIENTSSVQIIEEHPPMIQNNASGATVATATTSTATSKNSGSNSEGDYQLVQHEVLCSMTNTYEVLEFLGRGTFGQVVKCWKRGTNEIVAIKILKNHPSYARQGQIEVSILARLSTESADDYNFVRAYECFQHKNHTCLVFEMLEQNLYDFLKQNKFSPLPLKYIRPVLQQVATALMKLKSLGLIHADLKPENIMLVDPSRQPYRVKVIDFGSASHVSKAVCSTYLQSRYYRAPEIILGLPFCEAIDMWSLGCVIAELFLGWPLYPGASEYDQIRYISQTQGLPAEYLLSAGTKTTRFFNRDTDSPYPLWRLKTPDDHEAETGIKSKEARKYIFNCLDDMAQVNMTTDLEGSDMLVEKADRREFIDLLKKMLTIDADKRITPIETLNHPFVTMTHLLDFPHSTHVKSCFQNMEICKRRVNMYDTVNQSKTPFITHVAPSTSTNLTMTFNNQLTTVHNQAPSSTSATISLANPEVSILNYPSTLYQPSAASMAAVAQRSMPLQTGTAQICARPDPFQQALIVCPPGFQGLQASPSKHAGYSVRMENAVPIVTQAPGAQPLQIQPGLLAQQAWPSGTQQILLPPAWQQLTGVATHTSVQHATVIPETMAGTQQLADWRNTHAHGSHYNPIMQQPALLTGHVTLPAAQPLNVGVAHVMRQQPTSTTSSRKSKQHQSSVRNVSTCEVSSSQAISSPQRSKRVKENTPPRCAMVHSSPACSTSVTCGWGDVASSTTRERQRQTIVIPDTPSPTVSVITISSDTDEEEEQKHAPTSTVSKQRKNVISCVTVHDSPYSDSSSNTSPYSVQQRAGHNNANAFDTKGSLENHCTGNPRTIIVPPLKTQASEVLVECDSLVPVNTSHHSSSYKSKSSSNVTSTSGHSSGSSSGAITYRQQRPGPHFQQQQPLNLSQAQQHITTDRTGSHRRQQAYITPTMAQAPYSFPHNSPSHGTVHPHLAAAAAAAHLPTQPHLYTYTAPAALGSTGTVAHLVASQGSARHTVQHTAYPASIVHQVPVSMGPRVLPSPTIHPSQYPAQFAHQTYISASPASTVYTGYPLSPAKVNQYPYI
MAP kinase-activated protein kinase 2 (Homo sapiens), sequence (P49137 whole entry, looked up): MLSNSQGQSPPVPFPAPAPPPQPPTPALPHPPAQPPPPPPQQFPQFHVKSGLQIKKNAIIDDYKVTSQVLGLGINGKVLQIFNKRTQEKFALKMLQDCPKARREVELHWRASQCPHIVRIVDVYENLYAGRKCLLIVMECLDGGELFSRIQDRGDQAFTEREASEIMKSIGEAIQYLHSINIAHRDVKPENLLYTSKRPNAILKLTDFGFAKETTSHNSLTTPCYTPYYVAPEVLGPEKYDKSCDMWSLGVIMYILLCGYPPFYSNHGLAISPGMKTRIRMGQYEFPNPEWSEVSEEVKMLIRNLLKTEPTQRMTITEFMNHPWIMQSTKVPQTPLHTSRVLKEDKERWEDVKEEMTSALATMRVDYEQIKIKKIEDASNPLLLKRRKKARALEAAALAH
MAP kinase-activated protein kinase 3 (Homo sapiens), sequence (Q16644 whole entry, looked up): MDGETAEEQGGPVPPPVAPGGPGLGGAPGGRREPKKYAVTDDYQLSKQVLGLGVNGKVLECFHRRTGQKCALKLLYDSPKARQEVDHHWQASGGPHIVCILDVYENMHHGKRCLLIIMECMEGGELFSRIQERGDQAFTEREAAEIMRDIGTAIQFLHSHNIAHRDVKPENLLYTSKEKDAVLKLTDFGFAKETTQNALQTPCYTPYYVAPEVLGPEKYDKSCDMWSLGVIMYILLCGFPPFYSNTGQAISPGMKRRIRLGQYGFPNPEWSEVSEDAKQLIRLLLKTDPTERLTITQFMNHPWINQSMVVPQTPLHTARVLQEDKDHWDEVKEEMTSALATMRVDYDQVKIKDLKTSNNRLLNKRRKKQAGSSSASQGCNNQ
Mitogen-activated protein kinase 9, sequence (P45984 whole entry, looked up): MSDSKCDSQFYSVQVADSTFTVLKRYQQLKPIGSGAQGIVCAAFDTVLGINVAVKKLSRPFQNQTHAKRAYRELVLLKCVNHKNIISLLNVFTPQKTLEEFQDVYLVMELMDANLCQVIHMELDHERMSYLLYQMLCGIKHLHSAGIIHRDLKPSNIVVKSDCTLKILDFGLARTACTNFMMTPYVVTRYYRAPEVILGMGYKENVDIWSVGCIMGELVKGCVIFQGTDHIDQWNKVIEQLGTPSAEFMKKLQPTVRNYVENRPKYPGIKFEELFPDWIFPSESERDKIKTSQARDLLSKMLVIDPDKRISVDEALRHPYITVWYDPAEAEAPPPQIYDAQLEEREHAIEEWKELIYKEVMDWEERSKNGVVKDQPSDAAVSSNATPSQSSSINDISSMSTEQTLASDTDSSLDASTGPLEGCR
Homeodomain-interacting protein kinase 3 (Homo sapiens), sequence (Q9H422 whole entry, looked up): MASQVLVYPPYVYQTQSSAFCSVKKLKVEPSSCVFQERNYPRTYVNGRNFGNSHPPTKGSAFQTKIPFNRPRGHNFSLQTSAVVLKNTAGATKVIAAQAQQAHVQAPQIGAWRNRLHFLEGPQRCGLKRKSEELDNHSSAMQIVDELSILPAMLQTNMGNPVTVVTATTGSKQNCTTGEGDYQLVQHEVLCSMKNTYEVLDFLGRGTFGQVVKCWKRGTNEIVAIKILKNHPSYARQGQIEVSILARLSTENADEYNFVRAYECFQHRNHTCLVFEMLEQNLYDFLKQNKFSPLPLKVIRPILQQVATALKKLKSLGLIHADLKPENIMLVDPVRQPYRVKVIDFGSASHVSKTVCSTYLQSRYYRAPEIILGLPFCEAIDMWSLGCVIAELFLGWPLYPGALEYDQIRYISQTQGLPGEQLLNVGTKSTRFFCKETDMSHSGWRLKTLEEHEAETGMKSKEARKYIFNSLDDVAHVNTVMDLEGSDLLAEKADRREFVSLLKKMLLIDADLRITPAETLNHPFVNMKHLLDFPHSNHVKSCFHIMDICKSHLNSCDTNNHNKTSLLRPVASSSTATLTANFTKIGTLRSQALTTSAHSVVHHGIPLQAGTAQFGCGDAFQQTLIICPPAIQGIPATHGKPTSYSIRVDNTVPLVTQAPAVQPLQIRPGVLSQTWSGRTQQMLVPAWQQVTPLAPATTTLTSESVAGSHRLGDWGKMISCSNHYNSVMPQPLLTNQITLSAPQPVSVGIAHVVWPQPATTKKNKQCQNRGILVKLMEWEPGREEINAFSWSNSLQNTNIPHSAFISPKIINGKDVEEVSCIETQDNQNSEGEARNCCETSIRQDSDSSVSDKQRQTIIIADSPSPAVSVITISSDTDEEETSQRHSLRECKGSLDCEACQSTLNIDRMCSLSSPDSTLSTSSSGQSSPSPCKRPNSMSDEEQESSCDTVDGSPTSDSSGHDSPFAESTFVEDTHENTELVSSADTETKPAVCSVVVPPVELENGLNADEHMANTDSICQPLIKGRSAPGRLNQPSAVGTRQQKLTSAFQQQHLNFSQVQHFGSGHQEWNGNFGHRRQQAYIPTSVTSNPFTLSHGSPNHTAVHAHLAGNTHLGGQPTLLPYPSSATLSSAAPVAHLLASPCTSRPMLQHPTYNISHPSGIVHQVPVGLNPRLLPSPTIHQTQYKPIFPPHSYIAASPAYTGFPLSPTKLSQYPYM
RAC-alpha serine/threonine-protein kinase (Homo sapiens), sequence (P31749 whole entry): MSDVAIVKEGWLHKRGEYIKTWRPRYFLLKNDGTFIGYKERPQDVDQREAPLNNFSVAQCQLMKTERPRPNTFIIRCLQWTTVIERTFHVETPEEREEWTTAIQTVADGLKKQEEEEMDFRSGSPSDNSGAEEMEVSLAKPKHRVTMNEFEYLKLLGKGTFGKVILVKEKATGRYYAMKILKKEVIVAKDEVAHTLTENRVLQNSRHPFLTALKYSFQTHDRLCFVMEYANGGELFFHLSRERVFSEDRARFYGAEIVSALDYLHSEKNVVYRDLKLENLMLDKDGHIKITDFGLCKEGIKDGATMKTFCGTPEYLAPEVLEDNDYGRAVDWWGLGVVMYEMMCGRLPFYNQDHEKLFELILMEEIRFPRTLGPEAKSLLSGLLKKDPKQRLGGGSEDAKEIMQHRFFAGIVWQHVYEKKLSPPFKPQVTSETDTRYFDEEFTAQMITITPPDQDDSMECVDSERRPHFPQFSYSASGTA

SMILES	Activity [1] [%]	Activity [2] [%]	Activity [3] [%]	Activity [4] [%]	Activity [5] [%]	Activity [6] [%]	Activity [7] [%]	Activity [8] [%]	Activity [9] [%]	Activity [10] [%]	Activity [11] [%]	Activity [12] [%]	Activity [13] [%]	Activity [14] [%]	Activity (Aurora kinase B) [%]	Activity [15] [%]	Activity [16] [%]	Activity [17] [%]	also measured
O=C(NCCCNc1nc(Nc2cccc(NC(=O)N3CCCC3)c2)ncc1I)c1cccs1	86	105	98	95	108	97	87	102	90	95	101	114	82	103	–	–	–	–	Activity (Aurora kinase B; filed as antagonist): 17%
CN[C@@H]1C[C@H]2O[C@@](C)([C@@H]1OC)n1c3ccccc3c3c4c(c5c6ccccc6n2c5c31)C(=O)N[C@H]4O (stereo in doubt)	58	92	105	109	75	–	83	63	79	116	92	80	77	107	59	–	–	–	Activity ([6]; filed as antagonist): 50%
COc1cc(OC)c(/C=C2/C(=O)Nc3ccccc32)c(OC)c1	–	–	–	–	–	–	–	–	–	–	–	–	–	–	–	41	86	84	Activity [18]: 87%
Cc1n[nH]c2ccc(-c3cncc(OC[C@@H](N)Cc4c[nH]c5ccccc45)c3)cc12	112	79	93	73	92	97	78	–	–	90	94	99	81	91	81	–	–	–	Activity ([8]; filed as antagonist): 26%; Activity ([9]; filed as antagonist): 5%
NCCNS(=O)(=O)c1ccc(Cl)c2ccncc12	–	–	–	–	–	–	–	–	–	–	–	–	–	–	–	28	86	86	Activity ([18]; filed as antagonist): 47%
